Test results from paper PMC6491818, “Novel 4-Acrylamido-Quinoline Derivatives as Potent PI3K/mTOR Dual Inhibitors: The Design, Synthesis, and in vitro and in vivo Biological Evaluation” (Frontiers in Chemistry, 2019).
“Also recorded” adds a separate entry of the source.

Assays:
PI3Kα = PI3Kα (Homo sapiens, UniProt P42336); assay: PI3Kα enzymatic assay (Kinase-Glo Luminescent Kinase assay); type: biochemical
Method: (§3) Kinase-Glo Luminescent Kinase assay (Promega) was performed to determine the PI3Kα inhibitory activity, while ADP-Glo Luminescent assay (Promega) was performed to identify the inhibitory activity against PI3Kβ, γ, or δ. The kinase buffer was composed of HEPES (50 mM, pH 7.5), MgCl2 (3 mM), EGTA (1 mM), NaCl (100 mM), CHAPS (0.03%) and DTT (2 mM). The serially diluted compound solutions (2.5 mL) were successively added to a 384-well plate. Afterwards, the solution of kinase (2.5 mL) in the kinase buffer and the solution of substrate (5 mL) in the kinase buffer containing PIP2 and ATP were added to each well of the assay plate for starting the reaction. Kinase buffer was added instead to the control well without enzyme. […] After being incubated at room temperature for 1 h, Kinase-Glo reagent (10 mL) was added to each well of the PI3Kα assay plate to quench the reaction. […] The mixture was treated briefly with centrifuge, shaken slowly, and equilibrated for 40 min. Kinase Detection reagent (10 mL) was added to each well. Before reading on a plate reader for luminescence, the resultant mixture was incubated at room temperature for 1 h. After calculating the percent inhibition from the RLU values, the curves were fitted in Graphpad Prism 5 to give IC50 values.

PI3Kβ = PI3Kβ (Homo sapiens, UniProt P42338); assay: PI3Kβ enzymatic assay (ADP-Glo Luminescent assay); type: biochemical
PI3Kβ, sequence (P42338 whole entry): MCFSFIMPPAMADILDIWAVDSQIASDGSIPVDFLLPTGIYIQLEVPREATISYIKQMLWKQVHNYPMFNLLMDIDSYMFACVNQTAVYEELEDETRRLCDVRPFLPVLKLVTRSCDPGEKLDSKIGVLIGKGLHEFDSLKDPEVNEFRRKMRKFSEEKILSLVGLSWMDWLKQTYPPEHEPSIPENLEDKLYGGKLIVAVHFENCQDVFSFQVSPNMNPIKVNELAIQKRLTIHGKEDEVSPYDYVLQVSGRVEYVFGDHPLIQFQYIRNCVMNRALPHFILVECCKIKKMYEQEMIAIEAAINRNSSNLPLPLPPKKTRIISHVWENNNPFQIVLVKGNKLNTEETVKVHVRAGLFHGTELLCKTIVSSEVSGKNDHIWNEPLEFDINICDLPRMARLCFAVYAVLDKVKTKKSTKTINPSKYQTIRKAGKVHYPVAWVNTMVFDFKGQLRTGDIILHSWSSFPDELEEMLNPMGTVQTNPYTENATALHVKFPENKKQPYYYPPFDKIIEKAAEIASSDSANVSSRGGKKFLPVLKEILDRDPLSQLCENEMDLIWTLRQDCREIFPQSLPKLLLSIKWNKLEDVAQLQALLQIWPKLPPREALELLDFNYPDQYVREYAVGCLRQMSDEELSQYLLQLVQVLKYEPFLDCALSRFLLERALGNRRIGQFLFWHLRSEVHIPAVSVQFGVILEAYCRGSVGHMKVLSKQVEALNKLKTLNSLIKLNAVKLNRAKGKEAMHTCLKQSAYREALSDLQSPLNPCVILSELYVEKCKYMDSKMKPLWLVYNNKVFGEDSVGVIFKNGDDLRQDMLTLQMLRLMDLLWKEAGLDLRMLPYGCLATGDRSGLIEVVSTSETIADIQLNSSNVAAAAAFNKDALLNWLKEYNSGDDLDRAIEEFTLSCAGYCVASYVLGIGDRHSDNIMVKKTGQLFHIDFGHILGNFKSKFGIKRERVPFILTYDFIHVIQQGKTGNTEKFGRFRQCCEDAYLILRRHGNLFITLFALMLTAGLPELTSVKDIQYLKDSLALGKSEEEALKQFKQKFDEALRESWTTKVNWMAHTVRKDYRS
PI3Kβ, sequence (P27986 whole entry partner): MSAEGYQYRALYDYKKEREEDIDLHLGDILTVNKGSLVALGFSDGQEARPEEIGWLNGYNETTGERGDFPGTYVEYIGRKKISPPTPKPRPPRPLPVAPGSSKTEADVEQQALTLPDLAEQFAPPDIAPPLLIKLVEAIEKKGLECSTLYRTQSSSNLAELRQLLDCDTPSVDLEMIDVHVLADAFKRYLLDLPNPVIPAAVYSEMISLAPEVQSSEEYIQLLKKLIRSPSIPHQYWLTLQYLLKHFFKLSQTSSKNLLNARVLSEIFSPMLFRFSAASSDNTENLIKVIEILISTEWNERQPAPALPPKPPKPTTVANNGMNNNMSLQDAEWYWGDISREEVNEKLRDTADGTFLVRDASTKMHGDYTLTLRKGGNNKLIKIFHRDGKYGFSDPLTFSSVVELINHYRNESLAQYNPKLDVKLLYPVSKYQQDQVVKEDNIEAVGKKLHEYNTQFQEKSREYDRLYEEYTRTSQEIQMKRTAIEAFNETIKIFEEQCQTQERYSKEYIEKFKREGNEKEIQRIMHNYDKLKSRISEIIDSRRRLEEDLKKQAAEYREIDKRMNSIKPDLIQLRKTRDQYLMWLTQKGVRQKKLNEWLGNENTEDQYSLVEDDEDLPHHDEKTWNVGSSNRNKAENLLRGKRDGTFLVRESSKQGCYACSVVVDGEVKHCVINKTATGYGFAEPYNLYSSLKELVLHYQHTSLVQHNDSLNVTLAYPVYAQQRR
Method: as §3

PI3Kγ = PI3Kγ (Homo sapiens, UniProt P48736); assay: PI3Kγ enzymatic assay (ADP-Glo Luminescent assay); type: biochemical
Method: (§1) Kinase-Glo Luminescent Kinase assay (Promega) was performed to determine the PI3Kα inhibitory activity, while ADP-Glo Luminescent assay (Promega) was performed to identify the inhibitory activity against PI3Kβ, γ, or δ. The kinase buffer was composed of HEPES (50 mM, pH 7.5), MgCl2 (3 mM), EGTA (1 mM), NaCl (100 mM), CHAPS (0.03%) and DTT (2 mM). The serially diluted compound solutions […] were successively added to a 384-well plate. Afterwards, the solution of kinase […] in the kinase buffer and the solution of substrate (5 mL) in the kinase buffer containing PIP2 and ATP were added to each well of the assay plate for starting the reaction. Kinase buffer was added instead to the control well without enzyme. The final concentrations of PI3Kα, PI3Kβ, PI3Kγ, PI3Kδ, PIP2, and ATP in corresponding kinase reaction mixture were 1.65 nM, 4.8 nM, 7.6 nM, 5.7 nM, […], respectively. After being incubated at room temperature for 1 h, Kinase-Glo reagent (10 mL) was added to each well of the PI3Kα assay plate to quench the reaction. Subsequently, the mixture needs to be mixed briefly with centrifuge and shaken slowly for 15 min before being read on a plate reader for luminescence. As for PI3Kβ, γ, or δ, reaction mixture (5 mL) was transferred to a new 384-plate and ADP-Glo reagent (5 mL) was added for stopping the reaction. The mixture was treated briefly with centrifuge, shaken slowly, and equilibrated for 40 min. Kinase Detection reagent (10 mL) was added to each well. Before reading on a plate reader for luminescence, the resultant mixture was incubated at room temperature for 1 h. After calculating the percent inhibition from the RLU values, the curves were fitted in Graphpad Prism 5 to give IC50 values.

PI3Kδ = PI3Kδ (Homo sapiens, UniProt O00329); assay: PI3Kδ enzymatic assay (ADP-Glo Luminescent assay); type: biochemical
Method: as §3

[1] = target: mTOR (1362-end, Millipore) (Homo sapiens, UniProt P42345); assay: mTOR enzymatic assay (Lance Ultra assay); type: biochemical
mTOR (1362-end, Millipore), sequence (P42345 1362-2549 limits assumed): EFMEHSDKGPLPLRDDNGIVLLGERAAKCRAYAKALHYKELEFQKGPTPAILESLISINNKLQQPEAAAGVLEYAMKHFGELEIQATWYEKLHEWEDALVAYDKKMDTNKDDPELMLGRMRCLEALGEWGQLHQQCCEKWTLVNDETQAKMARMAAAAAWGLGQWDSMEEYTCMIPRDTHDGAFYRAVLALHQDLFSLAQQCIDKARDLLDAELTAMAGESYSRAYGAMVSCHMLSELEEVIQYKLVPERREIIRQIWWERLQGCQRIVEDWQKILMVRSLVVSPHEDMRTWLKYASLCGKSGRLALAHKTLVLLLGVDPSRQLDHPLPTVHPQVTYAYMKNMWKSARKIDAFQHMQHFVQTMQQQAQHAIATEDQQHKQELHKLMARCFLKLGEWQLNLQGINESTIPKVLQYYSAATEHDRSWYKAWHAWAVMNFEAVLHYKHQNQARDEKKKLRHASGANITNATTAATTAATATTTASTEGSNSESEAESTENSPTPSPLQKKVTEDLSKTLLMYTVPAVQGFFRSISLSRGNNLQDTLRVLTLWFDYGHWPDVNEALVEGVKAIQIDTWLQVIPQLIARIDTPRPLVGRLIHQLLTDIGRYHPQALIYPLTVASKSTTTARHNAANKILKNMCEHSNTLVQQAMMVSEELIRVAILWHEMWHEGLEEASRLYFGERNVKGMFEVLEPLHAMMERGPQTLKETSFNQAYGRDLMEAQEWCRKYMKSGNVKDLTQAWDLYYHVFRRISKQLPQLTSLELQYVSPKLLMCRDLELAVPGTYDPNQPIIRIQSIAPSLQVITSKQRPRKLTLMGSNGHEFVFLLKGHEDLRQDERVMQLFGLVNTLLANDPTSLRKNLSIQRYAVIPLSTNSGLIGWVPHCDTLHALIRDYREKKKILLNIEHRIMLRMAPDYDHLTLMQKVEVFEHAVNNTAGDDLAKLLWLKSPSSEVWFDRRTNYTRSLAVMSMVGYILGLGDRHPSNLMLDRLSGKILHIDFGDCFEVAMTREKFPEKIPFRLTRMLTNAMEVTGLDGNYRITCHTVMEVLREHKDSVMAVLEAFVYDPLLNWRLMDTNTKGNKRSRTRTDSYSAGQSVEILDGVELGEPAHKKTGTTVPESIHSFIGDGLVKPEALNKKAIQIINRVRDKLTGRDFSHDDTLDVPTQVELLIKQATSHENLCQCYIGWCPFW
Method: The kinase buffer was composed of HEPES (50 mM, pH 7.5), MgCl2 (10 mM), EGTA (1 mM), MnCl2 (3 mM), Tween-20 (0.01%) and DTT (2 mM). The solution of substrate in the kinase buffer contained ULight-4E-BP1 peptide (Thr37/46, PE) and ATP. […] After being incubated at room temperature for 1 h, kinase detection buffer (10 mL) containing EDTA and Eu-anti-phospho-4E-BP1 antibody (Thr37/46, PE) was added to each well of the assay plate. Before reading on a plate reader, the mixture needs to be mixed briefly with centrifuge and then allowed to equilibrate for 1 h. After calculating the percent inhibition from Lance signal, the curves were fitted in Graphpad Prism 5 to give IC50 values.

[2] = system: prostate cancer PC3 cell line; assay: Anti-proliferative SRB assay, PC3; type: cell-based; details: PC3 cells, 72 h exposure
Method: (§2) The anti-proliferative activity of compounds was evaluated by sulforhodamin B (SRB) assay. After being cultured for 10 h, cells in 96-well plates were subjected to 72 h-exposure to serially diluted compound solutions. Cells were washed with PBS and fixed with trichloroacetic acid (10%, W/V) at 4°C for 1 h. Then, cells were successively washed with PBS, stained for 0.5 h with SRB (0.4%, dissolved in 1% acetic acid), and washed by 1% acetic acid for 5 times. Protein-bound dye was extracted with unbuffered Tris base (10 mmol). After calculating the percent inhibition from absorbance, measured at 515 nm with a multiscan spectrum (Thermo Electron Co., Vantaa, Finland), the curves were fitted in Graphpad Prism 5 to give GI50 values.

[3] = system: colorectal cancer HCT116 cell line; assay: Anti-proliferative SRB assay, HCT116; type: cell-based; details: 72 h exposure
Method: as §2

[4] = system: phos-Akt (Ser473), phos-Akt (Thr308), phos-S6 ribosomal protein (Ser235/236), phos-4E-BP1 (Thr37/46); assay: Western blot of PI3K/Akt/mTOR signaling biomarkers in PC3 cells; type: cell-based; details: 3 h treatment
Method: The Western blot analysis for evaluating the capability to down-regulate phos-Akt (Ser473), phos-Akt (Thr308), phos-S6 ribosomal protein (Ser235/236), and phos-4E-BP1 (Thr37/46) in PC3 cells was performed according to the protocol disclosed in our previous study (Zhang et al., [2017a]) with a minor modification. The cells were seeded into six-well plate at 1 × 10^6 cells per well, and then incubated at 37°C (5% CO2) overnight prior to drug treatment.

[5] = Pharmacokinetic study in SD rats, oral; type: in vivo; details: Sprague-Dawley, rat, plasma, 5 mg/kg
Method: SD rats were utilized for the PK study of 8i following oral gavage at the dosage of 5 mg/kg, and the oral dose was formulated in a homogenous opaque suspension of 0.5% methylcellulose. This experiment was performed with the protocol disclosed in our previous work (Zhang et al., [2017b]). The study was carried out in accordance with institutional guidelines of the Animal Research Committee at Jiaxing University (log number JXU2015120812). The protocol was approved by the institution.

PI3Ks and mTOR = assay: Enzymatic activity against PI3Ks and mTOR (summary over all tested enzymes); type: biochemical; details: PI3Kα, PI3Kβ, PI3Kγ, PI3Kδ and mTOR
Method: as §1, with “After being incubated at room temperature for 1 h, Kinase-Glo reagent (10 mL) was added to each well of the PI3Kα assay plate to quench the reaction.” left out, “As for PI3Kβ, γ, or δ, reaction mixture (5 mL) was transferred to a new 384-plate and ADP-Glo reagent (5 mL) was added for stopping the reaction. The mixture was treated briefly with centrifuge, shaken slowly, and equilibrated for 40 min. Kinase Detection reagent (10 mL) was added to each well.” left out, “After calculating the percent inhibition from the RLU values, the curves were fitted in Graphpad Prism 5 to give IC50 values.” left out
Lance Ultra assay was performed to determine the mTOR (1362-end, Millipore) inhibitory activity. […] Before reading on a plate reader, the mixture needs to be mixed briefly with centrifuge and then allowed to equilibrate for 1 h. […]

[6] = Liver microsomal stability assay, HLM; details: human, liver microsomes
[7] = Liver microsomal stability assay, RLM; details: Sprague-Dawley, rat, liver microsomes
in vitro [8] = details: human, microsomes
in vitro [9] = details: Sprague-Dawley, rat, microsomes

PI3Kα, sequence (P42336 whole entry): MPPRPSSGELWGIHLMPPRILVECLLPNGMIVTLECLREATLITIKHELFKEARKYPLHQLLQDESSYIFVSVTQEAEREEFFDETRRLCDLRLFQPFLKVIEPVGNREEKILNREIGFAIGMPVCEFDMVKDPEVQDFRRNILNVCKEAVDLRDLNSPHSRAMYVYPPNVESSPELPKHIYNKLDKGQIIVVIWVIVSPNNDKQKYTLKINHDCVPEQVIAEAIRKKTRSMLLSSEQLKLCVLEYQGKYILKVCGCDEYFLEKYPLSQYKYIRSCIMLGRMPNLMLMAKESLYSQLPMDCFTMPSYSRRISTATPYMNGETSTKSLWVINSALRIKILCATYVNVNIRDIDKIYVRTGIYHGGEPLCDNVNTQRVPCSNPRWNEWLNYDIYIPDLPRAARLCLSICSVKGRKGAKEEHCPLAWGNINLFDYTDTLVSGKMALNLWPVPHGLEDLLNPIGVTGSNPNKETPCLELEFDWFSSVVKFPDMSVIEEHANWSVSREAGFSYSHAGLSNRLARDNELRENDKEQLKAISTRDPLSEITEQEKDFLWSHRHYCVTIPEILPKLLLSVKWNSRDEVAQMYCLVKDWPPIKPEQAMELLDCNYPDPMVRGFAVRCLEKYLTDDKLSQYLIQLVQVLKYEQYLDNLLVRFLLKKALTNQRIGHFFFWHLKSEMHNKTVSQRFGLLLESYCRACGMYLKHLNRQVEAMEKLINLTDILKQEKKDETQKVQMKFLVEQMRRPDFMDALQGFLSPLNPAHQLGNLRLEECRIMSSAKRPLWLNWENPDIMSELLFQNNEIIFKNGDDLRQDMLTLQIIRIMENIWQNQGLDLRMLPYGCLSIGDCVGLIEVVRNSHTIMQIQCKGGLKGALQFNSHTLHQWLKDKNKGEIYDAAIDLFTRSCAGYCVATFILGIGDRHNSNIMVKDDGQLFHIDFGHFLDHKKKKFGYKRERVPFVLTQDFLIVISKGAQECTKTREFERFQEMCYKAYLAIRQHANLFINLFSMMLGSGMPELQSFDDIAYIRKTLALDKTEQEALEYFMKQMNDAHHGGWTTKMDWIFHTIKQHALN
PI3Kα, sequence (P27986 whole entry partner): as the sequence (P27986 whole entry partner) above

For `COc1ncc(-c2ccc3nccc(/C=C/C(=O)N4CCN(C)CC4)c3c2)cc1NS(=O)(=O)c1ccc(F)cc1F` [8i, (E)-2,4-difluoro-N-(2-methoxy-5-(4-(3-(4-methylpiperazin-1-yl)-3-oxoprop-1-en-1-yl)quinolin-6-yl)pyridin-3-yl)benzenesulfonamide], the IC50 (PI3Kα) was 0.5 nM, the IC50 (PI3Kβ) was 1.5 nM and the IC50 (PI3Kγ) was 0.55 nM. It also gave an IC50 (PI3Kδ) of 1 nM, an IC50 [1] of 1.3 nM and a GI50 ([2]; Homo sapiens, PC-3, 72 h) of less than 500 nM. The GI50 [2] was 400 nM, the “GI50 HCT116” value ([3]; HCT116 cells) was “sub-micromolar” and the GI50 ([3]; Homo sapiens, HCT-116, HCT116 cells) was 470 nM. For the same molecule, the “effect on the level of phos-Akt (Ser473) compared with GSK2126458” value [4] was “stronger”, the “down-regulation of phos-Akt (Ser473), phos-Akt (Thr308), phos-S6 ribosomal protein (Ser235/236) and phos-4E-BP1 (Thr37/46)” value ([4]; at a concentration as low as 5 nM) was “dramatically down-regulated; also recorded: remarkably down-regulated” and the AUC(0-inf) [5] was 412 ng·h/mL. It also gave an AUC(0-t) [5] of 379 ng·h/mL, a Cmax [5] of 249 ng/mL and a half-life ([5]; read-out: elimination half-life t1/2 (converted)) of 1.73 h. For the same molecule, the “IC50 values against all the tested enzymes” value (PI3Ks and mTOR) was “sub-nanomolar or low nanomolar level”, the CLint scaled [6] was 16.6 mL/min/kg and the half-life [6] was 1.25 h. The microsomal CLint [6] was 18.5 µL/min/mg, the remaining at 1 h [6] was 57.1% and the CLint scaled [7] was less than 17.3 mL/min/kg. The half-life [7] was greater than 2.42 h, the microsomal CLint [7] was less than 9.6 µL/min/mg and the remaining at 1 h [7] was 72.8%.
Molecule `C[C@]12CC[C@H]3[C@@H](CCC4=CC(=O)CC[C@@]43C)[C@@H]1CC[C@@H]2O` [Testosterone] has a CLint scaled (in vitro [8]) of 91.1 mL/min/kg, a remaining at 1 h (in vitro [8]) of 4.8% and a CLint scaled (in vitro [9]) of 3780 mL/min/kg.
